The numbers were not newly measured in PMC5465257, “Evaluation of JNJ-54717793 a Novel Brain Penetrant Selective Orexin 1 Receptor Antagonist in Two Rat Models of Panic Attack Provocation” (Frontiers in Pharmacology, 2017), which cites them from elsewhere.

On the set-up of series [1]: method as in Beig et al., 2015a. Particulars: systemic administration; ref Beig et al., 2015a; cited from earlier work.
For another series, the system named is Sprague-Dawley rats. Details: method as in Bonaventure et al., 2015b; Johnson et al., 2015. Conditions: 20% CO2 model, ref Bonaventure et al., 2015b, Johnson et al.; cited from earlier work.
Details of series [2]: method as in Furlong et al., 2009. Conditions: ref Furlong et al., 2009; cited from earlier work.
The subject of the next series is GABA synthesis. Also noted: method as in earlier work. Conditions: 3.5 nmol/0.5 μl per hour, unilateral infusions; ref Shekhar and DiMicco, 1987; Abshire et al., 1988; Shekhar et al., 1996, 2006; Shekhar and Keim, 1997; cited from earlier work.

Molecules are shown by their SMILES.

Regarding `COc1ccc(C[C@H]2c3cc(OC)c(OC)cc3CCN2[C@@H](C(=O)NC(C)C)c2ccccc2)cc1OC` [ACT335827], in series [1], the “novelty stress (cage changes) induced cardioexcitation” value was “attenuates”.

Take `CC1(C)OC[C@H](NC(=O)Nc2ccc(Br)cc2Br)[C@H](c2ccccc2)O1` [JNJ-10397049]: the “panic responses to 20% CO2” value in the series on Sprague-Dawley rats is listed as “did not alter”.

As for `CNC(=O)[C@@H](c1ccccc1)N1CCc2cc(OC)c(OC)cc2[C@@H]1CCc1ccc(C(F)(F)F)cc1` [almorexant], the “locomotor and cardiovascular responses to exploration and footshock” value in series [2] was “attenuated”.

Consider `CCN(Cc1cccnc1)C(=O)CN(c1ccc(OC)nc1)S(=O)(=O)c1ccccc1C` [EMPA, N-ethyl-2-[(6-methoxy-pyridin-3-yl)-(toluene-2-sulfonyl)-amino]-N-pyridin-3-ylmethyl-acetamide], for which the “novelty stress (cage changes) induced cardioexcitation” value in series [1] was “attenuates”.

As for `C=CC[C@H](N)C(=O)O` [1-allyglycine], in the series with GABA synthesis, the “reduction of local GABA concentrations” value is on record as “approximately 60%”.
